Results reported in ChEMBL document CHEMBL4842359, “1,3-Diarylpyrazolyl-acylsulfonamides as Potent Anti-tuberculosis Agents Targeting Cell Wall Biosynthesis in Mycobacterium tuberculosis” (J Med Chem, 2021).
Values after ≈ are worked out from the molar mass of the structure shown.

What was measured:
[1] = Unbound clearance in iv dosed C57BL/6 mouse measured up to 24 hrs by LC-MS/MS analysis; type: ADME, organism-based; conditions: in vivo
[2] = Plasma protein binding in human assessed as unbound fraction at 5 uM by LC-MS/MS analysis; type: ADME, cell-free; conditions: 5 µM
[3] = Metabolic stability in rat liver microsomes assessed as compound remaining at 1 uM by LC-MS/MS analysis; type: ADME, Microsome; conditions: microsomes, 1 µM
[4] = system: Mycobacterium tuberculosis; test: microbe, parasite or virus in culture; conditions: H37Rv, 336 h
Description: Antimycobacterial activity against Mycobacterium tuberculosis H37Rv in presence of middlebrook 7H9/glucose/BSA/tyloxapol medium measured after 14 days by bioluminescence reporter assay

[5] = Lipophilicity, logD of the compound at pH 7.4 by HPLC-DAD analysis; type: physicochemical; conditions: buffer
[6] = AUC (0 to t) in iv dosed C57BL/6 mouse measured up to 24 hrs by LC-MS/MS analysis; type: ADME, organism-based; parameters: time <=24; conditions: in vivo
[7] = Terminal half life in iv dosed C57BL/6 mouse measured up to 24 hrs by LC-MS/MS analysis; type: ADME, organism-based; conditions: mouse, in vivo, 24 h
[8] = Metabolic stability in human liver microsomes assessed as compound remaining at 1 uM by LC-MS/MS analysis; type: ADME, Microsome; conditions: microsomes, 1 µM
[9] = Thermodynamic solubility of compound at pH 7.4 aqueous phosphate buffer
[10] = Metabolic stability in mouse liver microsomes assessed as compound remaining at 1 uM by LC-MS/MS analysis; type: ADME, Microsome; conditions: microsomes, 1 µM
[11] = Volume of distribution in iv dosed C57BL/6 mouse measured up to 24 hrs by LC-MS/MS analysis; type: ADME, organism-based; conditions: C57BL/6, mouse, in vivo, read-out: Vd

Compound	MIC [4] [µM]	solubility thermodynamic [9] [µM]	also measured
CS(=O)(=O)NC(=O)/C=C/c1cn(-c2ccc(Cl)cc2)nc1-c1ccncc1	4.7 (≈ 1.89 µg/mL)	90 (≈ 36.3 µg/mL)	CL free [1]: > 1200 L/h/kg; Fu [2]: 0.015 fraction; Stabilty [3]: 82%; logD [5]: 0.98; AUCt [6]: 8.7 µmol·min/L; beta t1/2 [7]: 1.1 h; Stabilty [8]: 88%; Stabilty [10]: 85%
CS(=O)(=O)NC(=O)CCc1cn(-c2ccc(C(F)(F)F)cc2)nc1-c1ccc(Cl)cc1	3.1 (≈ 1.46 µg/mL)	50 (≈ 23.6 µg/mL)	–
CS(=O)(=O)NC(=O)CCc1cc(-c2ccc(Br)cc2)n(-c2ccc(Cl)cc2)n1	> 50	170 (≈ 82.1 µg/mL)	–
O=c1[nH]c(CCc2cn(-c3ccc(Br)cc3)nc2-c2ccc(Cl)cc2)no1	50 (≈ 22.3 µg/mL)	< 5	–
O=C(O)CCc1cn(-c2ccc(Br)cc2)nc1-c1ccc(Cl)cc1	> 50	155 (≈ 62.9 µg/mL)	–
CC(Cc1cn(-c2ccc(Cl)cc2)nc1-c1ccncc1)C(=O)NS(C)(=O)=O (stereo unspecified)	> 50	190 (≈ 79.6 µg/mL)	–
CS(=O)(=O)NC(=O)CCc1cn(-c2ccccc2)nc1-c1ccc(Cl)cc1	> 50	200 (≈ 80.8 µg/mL)	–
CS(=O)(=O)NC(=O)CCc1cn(-c2ccc(Br)cc2)nc1-c1ccccc1	2.3 (≈ 1.03 µg/mL)	200 (≈ 89.7 µg/mL)	–
CS(=O)(=O)NC(=O)CCc1cn(-c2ccc(Br)cc2)nc1-c1cnccn1	20 (≈ 9.01 µg/mL)	196 (≈ 88.3 µg/mL)	–
CCS(=O)(=O)NC(=O)CCc1cn(-c2ccc(Br)cc2)nc1-c1ccc(Cl)cc1	–	10 (≈ 4.97 µg/mL)	–
CS(=O)(=O)NC(=O)CCc1cn(-c2cccc(Br)c2)nc1-c1ccc(Cl)cc1	> 50	< 5	–
CS(=O)(=O)NC(=O)CCc1cc(-c2ccc(Cl)cc2)nn1-c1ccc(F)cc1	5.5 (≈ 2.32 µg/mL)	195 (≈ 82.3 µg/mL)	–
O=c1[nH]nc(CCc2cn(-c3ccc(Br)cc3)nc2-c2ccc(Cl)cc2)o1	19 (≈ 8.47 µg/mL)	< 5	–
CS(=O)(=O)NC(=O)CCc1cn(-c2ccc(Br)cc2)nc1Cc1ccccc1	> 50	200 (≈ 92.5 µg/mL)	–
CS(=O)(=O)NC(=O)NCc1cc(-c2ccc(Br)cc2)oc1-c1ccncc1	–	25 (≈ 11.3 µg/mL)	CL free [1]: > 1200 L/h/kg; Stabilty [3]: 87%; logD [5]: 0.36; AUCt [6]: 20 µmol·min/L; Stabilty [8]: 98%; Stabilty [10]: 85%
CS(=O)(=O)NC(=O)NCc1cn(-c2ccc(C(F)(F)F)nc2)nc1-c1ccncc1	–	195 (≈ 85.9 µg/mL)	–
CS(=O)(=O)NC(=O)CCc1cn(-c2ccc(Br)cc2)nc1-c1ccc([N+](=O)[O-])cc1	–	< 5	–
CS(=O)(=O)NC(=O)CCc1nn(-c2ccc(Br)cc2)cc1-c1ccc(Cl)cc1	37 (≈ 17.9 µg/mL)	135 (≈ 65.2 µg/mL)	–
C[S+]([O-])c1ccc(-n2cc(CCC(=O)NS(C)(=O)=O)c(-c3ccc(Cl)cc3)n2)cc1 (stereo unspecified)	≥ 50	200 (≈ 93.2 µg/mL)	–
CS(=O)(=O)NC(=O)OCc1cn(-c2ccc(Cl)cc2)nc1-c1ccncc1	123 (≈ 50 µg/mL)	–	CL free [1]: > 1200 L/h/kg; Fu [2]: 0.03 fraction; Stabilty [3]: 97%; logD [5]: 2.73; AUCt [6]: 22 µmol·min/L; beta t1/2 [7]: 5.8 h; Stabilty [8]: 97%; Vd [11]: 0.1 L/kg; Stabilty [10]: 98%
CS(=O)(=O)NC(=O)CCCc1cn(-c2ccc(Br)cc2)nc1-c1ccc(Cl)cc1	37 (≈ 18.4 µg/mL)	135 (≈ 67.1 µg/mL)	–
CS(=O)(=O)NC(=O)CCn1nc(-c2ccc(Cl)cc2)cc1-c1ccc(Cl)cc1	> 50	200 (≈ 87.7 µg/mL)	–
CS(=O)(=O)NC(=O)C1CC1c1cn(-c2ccc(Cl)cc2)nc1-c1ccncc1 (stereo unspecified)	19 (≈ 7.92 µg/mL)	200 (≈ 83.4 µg/mL)	CL free [1]: > 1200 L/h/kg; Fu [2]: 0.01 fraction; Stabilty [3]: 92%; logD [5]: 1.06; AUCt [6]: 21 µmol·min/L; beta t1/2 [7]: 0.9 h; Stabilty [8]: > 99%; Stabilty [10]: 96%
CS(=O)(=O)NC(=O)NCc1cn(-c2ccc(Cl)cc2)nc1-c1ccc(Cl)cc1	3.13 (≈ 1.38 µg/mL)	< 5	–
CC(CC(=O)NS(C)(=O)=O)c1cn(-c2ccc(Cl)cc2)nc1-c1ccncc1 (stereo unspecified)	50 (≈ 20.9 µg/mL)	170 (≈ 71.2 µg/mL)	–

Compound	MIC [4] [µM]	solubility thermodynamic [9] [µM]	also measured
CN(C(=O)CCc1cn(-c2ccc(Br)cc2)nc1-c1ccc(Cl)cc1)S(C)(=O)=O	> 50	< 5	–
CS(=O)(=O)NC(=O)CCc1cn(C2CCCCC2)nc1-c1ccc(Cl)cc1	> 50	200 (≈ 82 µg/mL)	–
O=C1NC(=O)C(Cc2cn(-c3ccc(Cl)cc3)nc2-c2ccc(Cl)cc2)C(=O)N1	> 50	–	–
CS(=O)(=O)NC(=O)CCc1oc(-c2ccc(Cl)cc2)nc1-c1ccc(Cl)cc1	37 (≈ 16.3 µg/mL)	200 (≈ 87.9 µg/mL)	–
CS(=O)(=O)NC(=O)CCc1cn(-c2ccc(Cl)cc2)nc1-c1ccccc1Cl	> 50	90 (≈ 39.5 µg/mL)	–
CS(=O)(=O)NC(=O)CCc1cn(-c2ccc(Br)cc2)nc1C1CCCCC1	9.4 (≈ 4.27 µg/mL)	60 (≈ 27.3 µg/mL)	–
CS(=O)(=O)NC(=O)CCc1cn(-c2ccc(Br)cc2)nc1-c1cccc(Cl)c1	–	165 (≈ 79.7 µg/mL)	–
CS(=O)(=O)NC(=O)CCc1cn(-c2ccccc2Br)nc1-c1ccc(Cl)cc1	> 50	165 (≈ 79.7 µg/mL)	–
CS(=O)(=O)NC(=O)C1CC1c1cn(-c2ccc(Br)cc2)nc1-c1ccncc1 (stereo unspecified)	12.5 (≈ 5.77 µg/mL)	155 (≈ 71.5 µg/mL)	–
O=C(CCc1cn(-c2ccc(Br)cc2)nc1-c1ccc(Cl)cc1)NS(=O)(=O)C1CC1	> 50	5 (≈ 2.54 µg/mL)	–
CC(=O)NS(=O)(=O)CCc1cn(-c2ccc(Br)cc2)nc1-c1ccc(Cl)cc1	> 50	165 (≈ 79.7 µg/mL)	–
CS(=O)(=O)NC1=NOC(c2cn(-c3ccc(Cl)cc3)nc2-c2ccc(Cl)cc2)C1 (stereo unspecified)	25 (≈ 11.3 µg/mL)	175 (≈ 79 µg/mL)	–
CS(=O)(=O)NC(=O)CCc1cn(-c2ccc(F)cc2)nc1-c1ccc(Cl)cc1	37 (≈ 15.6 µg/mL)	25 (≈ 10.5 µg/mL)	–
CS(=O)(=O)NC(=O)CCc1sc(-c2ccc(Cl)cc2)nc1-c1ccc(Cl)cc1	19 (≈ 8.65 µg/mL)	90 (≈ 41 µg/mL)	–
CS(=O)(=O)NC(=O)CCc1cn(-c2ccc(Br)cc2)nc1C1CCNCC1	> 50	196 (≈ 89.3 µg/mL)	–
CS(=O)(=O)NC(=O)Cc1cn(-c2ccc(Br)cc2)nc1-c1ccc(Cl)cc1	> 50	–	–
CS(=O)(=O)NC(=O)CCc1cn(-c2ccc(Br)cc2)nc1-c1ccc(N)cc1	25 (≈ 11.6 µg/mL)	160 (≈ 74.1 µg/mL)	–
Clc1ccc(-c2nn(-c3ccc(Br)cc3)cc2CCc2nnn[nH]2)cc1	> 50	150 (≈ 64.5 µg/mL)	–
CS(=O)(=O)NC(=O)CCc1cn(-c2ccc(C#N)cc2)nc1-c1ccc(Cl)cc1	25 (≈ 10.7 µg/mL)	75 (≈ 32.2 µg/mL)	–
CS(=O)(=O)NCCCc1cn(-c2ccc(Br)cc2)nc1-c1ccc(Cl)cc1	> 50	< 5	–
CNC(=O)CCc1cn(-c2ccc(Br)cc2)nc1-c1ccc(Cl)cc1	> 50	< 5	–
CS(=O)(=O)NC(=O)/C=C/c1cn(-c2ccc(Br)cc2)nc1-c1ccncc1	12 (≈ 5.37 µg/mL)	115 (≈ 51.4 µg/mL)	–
CS(=O)(=O)NC(=O)CCc1cn(-c2ccncc2)nc1-c1ccc(Cl)cc1	> 50	190 (≈ 76.9 µg/mL)	–
CS(=O)(=O)NC(=O)CCc1cn(-c2ccc(Br)cc2)nc1C1CCN(C=O)CC1	50 (≈ 24.2 µg/mL)	200 (≈ 96.7 µg/mL)	–
